Where two headings read alike, the source gives them in different places.
What was measured:
[1] = test system: Cabbage Looper (Trichoplusia ni) ("CL"), second instar larvae; assay: Bioassay on cabbage looper (CL), 128-well diet tray assay; type: in vivo; conditions: for pest or weed control at 50 µg/cm2: Trichoplusia ni; for CL rating: Table ABC, species CL, C = not tested, D = no activity noticed
Procedure, shortened: (§1)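 Sealed trays, 25° C., 14:10 light:dark, 5–7 d. Per-well % mortality recorded, mean of eight wells reported.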

[2] = test system: Beet Armyworm (Spodoptera exigua) ("BAW"), second instar larvae; assay: Bioassay on beet armyworm (BAW), 128-well diet tray assay; type: in vivo; conditions: for pest or weed control at 50 µg/cm2: Spodoptera exigua; for BAW rating: Table ABC, species BAW, C = not tested, D = no activity noticed
Procedure, shortened: as §1

[3] = read-out: CL (Biological Results, rating)
[4] = read-out: BAW (Biological Results, rating)

SMILES | pest or weed control at 50 µg/cm2 ([1]; read-out: CL rating) [%] | pest or weed control at 50 µg/cm2 ([2]; read-out: BAW rating) [%] | pest or weed control at 50 µg/cm2 [1, 3] [%] | pest or weed control at 50 µg/cm2 [2, 4] [%] | further results
CN(C)c1ccc(C(F)(F)F)c(N2C(=O)CS/C2=N\C(=O)Nc2ccc(-c3cn(-c4ccc(C(F)(F)F)cn4)cn3)cc2F)c1 [Compound J483, (Z)-1-(3-(5-(Dimethylamino)-2-(trifluoromethyl)phenyl)-4-oxothiazolidin-2-ylidene)-3-(2-fluoro-4-(1-(5-(trifluoromethyl)pyridin-2-yl)-1H-imidazol-4-yl)phenyl)urea] | 50 to 100 | 50 to 100 | – | – | –
CC(C)c1ccc(N(C)C)cc1N1C(=O)CS/C1=N\C(=O)Nc1ccc(-c2ncn(-c3ccc(C(F)(F)F)cn3)n2)cc1 [Compound J339] | – | – | – | – | CL (Biological Results, rating) ([1]; Cabbage Looper (Trichoplusia ni), C = Not Tested): A (50-100); BAW (Biological Results, rating) ([2]; Beet Armyworm (Spodoptera exigua), C = Not Tested): A (50-100)
COC(C)c1ccc(C)cc1N1C(=O)CS/C1=N\C(=O)Nc1ccc(-c2ncn(-c3ccc(OC(F)(F)F)cc3)n2)cc1Br (centres unmarked) [Compound J220, (Z)-1-(2-Bromo-4-(1-(4-(trifluoromethoxy)phenyl)-1H-1,2,4-triazol-3-yl)phenyl)-3-(3-(2-(1-methoxyethyl)-5-methylphenyl)-4-oxothiazolidin-2-ylidene)urea] | – | – | 50 to 100 | 50 to 100 | –
COCc1ccc(N(C)C)cc1N1C(=O)CS/C1=N\C(=O)Nc1ccc(-n2cnc(-c3ccc(OC(F)(F)F)cc3)n2)cc1C [Compound J444, (Z)-1-(3-(5-(Dimethylamino)-2-(methoxymethyl)phenyl)-4-oxothiazolidin-2-ylidene)-3-(2-methyl-4-(3-(4-(trifluoromethoxy)phenyl)-1H-1,2,4-triazol-1-yl)phenyl)urea] | 50 to 100 | 50 to 100 | – | – | –
Cc1ccc(COCC(F)(F)Cl)c(N2C(=O)CS/C2=N\C(=O)Nc2ccc(-c3ncn(-c4ccc(S(F)(F)(F)(F)F)cc4)n3)cc2F)c1 [Compound J449] | – | – | – | – | CL rating [1]: A (50-100); BAW rating [2]: A (50-100)
Cc1ccc(COCC(F)(F)F)c(N2C(=O)CS/C2=N\C(=O)Nc2ccc(-c3ccn(-c4ccc(C(F)(F)F)cn4)n3)cc2C)c1 [Compound J310, (Z)-1-(3-(5-Methyl-2-((2,2,2-trifluoroethoxy)methyl)phenyl)-4-oxothiazolidin-2-ylidene)-3-(2-methyl-4-(1-(5-(trifluoromethyl)pyridin-2-yl)-1H-pyrazol-3-yl)phenyl)urea] | – | – | 50 to 100 | 50 to 100 | –
Cc1ccc(C(C)C)c(N2C(=O)CS/C2=N\C(=O)Nc2ccc(-c3ncn(-c4ccc(OC(F)(F)F)cc4)n3)cc2C(F)F)c1 [Compound J211, (Z)-1-(2-(Difluoromethyl)-4-(1-(4-(trifluoromethoxy)phenyl)-1H-1,2,4-triazol-3-yl)phenyl)-3-(3-(2-isopropyl-5-methylphenyl)-4-oxothiazolidin-2-ylidene)urea] | – | – | 50 to 100 | 50 to 100 | –
Cc1ccc(COCC(F)(F)F)c(N2C(=O)CS/C2=N\C(=O)Nc2ccc(-c3nnc(-c4ccc(OC(F)(F)F)cc4)s3)cc2F)c1 [Compound J500, (Z)-1-(2-Fluoro-4-(5-(4-(trifluoromethoxy)phenyl)-1,3,4-thiadiazol-2-yl)phenyl)-3-(3-(5-methyl-2-((2,2,2-trifluoroethoxy)methyl)phenyl)-4-oxothiazolidin-2-ylidene)urea] | 50 to 100 | 50 to 100 | – | – | –
Cc1ccc(COCC(F)(F)F)c(N2C(=O)CS/C2=N\C(=O)Nc2ccc(-c3cn(-c4ccc(S(F)(F)(F)(F)F)cc4)cn3)cc2C)c1 [Compound J616, (Z)-1-(3-(5-Methyl-2-((2,2,2-trifluoroethoxy)methyl)phenyl)-4-oxothiazolidin-2-ylidene)-3-(2-methyl-4-(1-(4-(pentafluoro-λ^6-sulfaneyl)phenyl)-1H-imidazol-4-yl)phenyl)urea] | 50 to 100 | 50 to 100 | – | – | –
CC(C)c1ccc(C(C)C)c(N2C(=O)CS/C2=N\C(=O)Nc2ccc(-c3ncn(-c4ccc(OC(F)(F)F)cc4)n3)cc2F)c1 [Compound J164, (Z)-1-(3-(2,5-Diisopropylphenyl)-4-oxothiazolidin-2-ylidene)-3-(2-fluoro-4-(1-(4-(trifluoromethoxy)phenyl)-1H-1,2,4-triazol-3-yl)phenyl)urea] | – | – | 50 to 100 | 50 to 100 | –
COC(c1ccc(C)cc1N1C(=O)CS/C1=N\C(=O)Nc1ccc(-n2cnc(-c3ccc(OC(F)(F)F)cc3)n2)cc1F)C(F)(F)F (centres unmarked) [Compound J687, (Z)-1-(2-Fluoro-4-(3-(4-(trifluoromethoxy)phenyl)-1H-1,2,4-triazol-1-yl)phenyl)-3-(3-(5-methyl-2-(2,2,2-trifluoro-1-methoxyethyl)phenyl)-4-oxothiazolidin-2-ylidene)urea] | 50 to 100 | 50 to 100 | – | – | –
Cc1ccc(COCC(F)(F)F)c(N2C(=O)CS/C2=N\C(=O)Nc2ccc(-c3noc(-c4ccc(OC(F)(F)F)cc4)n3)cc2F)c1 [Compound J770, (Z)-1-(2-Fluoro-4-(5-(4-(trifluoromethoxy)phenyl)-1,2,4-oxadiazol-3-yl)phenyl)-3-(3-(5-methyl-2-((2,2,2-trifluoroethoxy)methyl)phenyl)-4-oxothiazolidin-2-ylidene)urea] | 50 to 100 | 50 to 100 | – | – | –
CCc1cc(-c2ncn(-c3ccc(OC(F)(F)F)cc3)n2)ccc1NC(=O)/N=C1\SCC(=O)N1c1cc(NC)ccc1C(C)C [Compound J157, (Z)-1-(2-Ethyl-4-(1-(4-(trifluoromethoxy)phenyl)-1H-1,2,4-triazol-3-yl)phenyl)-3-(3-(2-isopropyl-5-(methylamino)phenyl)-4-oxothiazolidin-2-ylidene)urea] | – | – | 50 to 100 | 50 to 100 | –
Cc1ccc(OCCC(F)(F)F)c(N2C(=O)CS/C2=N\C(=O)Nc2ccc(-n3cnc(-c4ccc(OC(F)(F)F)cc4)n3)cc2C)c1 [Compound J441, (Z)-1-(3-(5-Methyl-2-(3,3,3-trifluoropropoxy)phenyl)-4-oxothiazolidin-2-ylidene)-3-(2-methyl-4-(3-(4-(trifluoromethoxy)phenyl)-1H-1,2,4-triazol-1-yl)phenyl)urea] | 50 to 100 | 50 to 100 | – | – | –
Cc1ccc(C(C)C)c(N2C(=O)CS/C2=N\C(=O)Nc2ccc(-c3ncn(-c4ccc(OC(F)(F)C(F)(F)F)cc4)n3)cc2F)c1 [Compound J26, (Z)-1-(2-Fluoro-4-(1-(4-(perfluoroethoxy)phenyl)-1H-1,2,4-triazol-3-yl)phenyl)-3-(3-(2-isopropyl-5-methylphenyl)-4-oxothiazolidin-2-ylidene)urea] | – | – | 50 to 100 | 50 to 100 | –
Cc1cc(-c2ncn(-c3ccc(OC(F)(F)F)cc3)n2)ccc1NC(=O)/N=C1\SCC(=O)N1c1cccc(C)c1COCC(F)(F)F [Compound J576] | – | – | – | – | CL rating [1]: A (50-100); BAW rating [2]: A (50-100)
Cc1ccc(COCC(F)(F)F)c(N2C(=O)CS/C2=N\C(=O)Nc2ccc(-c3cn(-c4ccc(C(F)(F)F)cc4)cn3)cc2)c1 [Compound J516, (Z)-1-(3-(5-Methyl-2-((2,2,2-trifluoroethoxy)methyl)phenyl)-4-oxothiazolidin-2-ylidene)-3-(4-(1-(4-(trifluoromethyl)phenyl)-1H-imidazol-4-yl)phenyl)urea] | 50 to 100 | 50 to 100 | – | – | –
Cc1ccc(COCC(F)(F)F)c(N2C(=O)CS/C2=N\C(=O)Nc2ccc(-c3ncn(-c4ccc(SC(F)(F)F)cc4)n3)cc2Cl)c1 [Compound J226, (Z)-1-(2-Chloro-4-(1-(4-((trifluoromethyl)thio)phenyl)-1H-1,2,4-triazol-3-yl)phenyl)-3-(3-(5-methyl-2-((2,2,2-trifluoroethoxy)methyl)phenyl)-4-oxothiazolidin-2-ylidene)urea] | – | – | 50 to 100 | 50 to 100 | –
Cc1ccc(COCC(F)(F)F)c(N2C(=O)CS/C2=N\C(=O)Nc2ccc(-c3ncn(-c4ccc(C(F)(F)F)cn4)n3)cc2C)c1 [Compound J297, (Z)-1-(3-(5-Methyl-2-((2,2,2-trifluoroethoxy)methyl)phenyl)-4-oxothiazolidin-2-ylidene)-3-(2-methyl-4-(1-(5-(trifluoromethyl)pyridin-2-yl)-1H-1,2,4-triazol-3-yl)phenyl)urea] | – | – | 50 to 100 | 50 to 100 | –
Cc1ccc(C(C)C)c(N2C(=O)CS/C2=N\C(=O)Nc2ccc(-c3nnc(-c4ccc(OC(F)(F)F)cc4)s3)cc2F)c1 [Compound J499, (Z)-1-(2-Fluoro-4-(5-(4-(trifluoromethoxy)phenyl)-1,3,4-thiadiazol-2-yl)phenyl)-3-(3-(2-isopropyl-5-methylphenyl)-4-oxothiazolidin-2-ylidene)urea] | 50 to 100 | 50 to 100 | – | – | –
Cc1cc(-c2ncn(-c3ccc(OC(F)(F)F)cc3)n2)cc(C)c1NC(=O)/N=C1\SCC(=O)N1c1cc(N(C)C)ccc1C(C)C [Compound J96, (Z)-1-(2,6-Dimethyl-4-(1-(4-(trifluoromethoxy)phenyl)-1H-1,2,4-triazol-3-yl)phenyl)-3-(3-(5-(dimethylamino)-2-isopropylphenyl)-4-oxothiazolidin-2-ylidene)urea] | – | – | 50 to 100 | 50 to 100 | –
CC(C)c1ccc(N(C)C)cc1N1C(=O)CS/C1=N\C(=O)Nc1ccc(-c2ncn(-c3ccc(C(F)(F)F)cn3)n2)cc1C(F)(F)F [Compound J302, (Z)-1-(3-(5-(Dimethylamino)-2-isopropylphenyl)-4-oxothiazolidin-2-ylidene)-3-(2-(trifluoromethyl)-4-(1-(5-(trifluoromethyl)pyridin-2-yl)-1H-1,2,4-triazol-3-yl)phenyl)urea] | – | – | 50 to 100 | 50 to 100 | –
